Patent publication US20090221522A1, “METHODS TO CORRECT GENE SET EXPRESSION PROFILES TO DRUG SENSITIVITY” (The Johns Hopkins University, priority 2008, published 2009)

Test system: direct pancreatic cancer xenografts (fine needle aspiration cells)
Test: Ex vivo perturbability assay, low-density microarray RT-PCR
Assay type: cell-based
Parameters: key to RRM1 gene expression / NFKB1 gene expression / BNIP3L gene expression / VHL gene expression / DCK gene expression / HIF1B gene expression / IGF1R gene expression / MAPK1 gene expression / MAP2K2 gene expression / JUN gene expression / IHH gene expression: % of untreated control (treated sample normalized to untreated)
Settings: treated normalized to untreated control
Excerpt: Direct pancreatic cancer derived xenografts: Resected pancreatic adenocarcinomas are routinely implanted in nude mice at the Johns Hopkins Medical Institutions as a method to obtain enriched populations of neoplastic cells under an IRB-approved protocol from residual pancreatic cancer tumors. Tumor specimens from Whipple resection specimens were divided into 2-3 mm^3 pieces in antibiotic-containing RPMI media. Pieces of non-necrotic tissue were selected and immersed in Matrigel. Under anesthesia with isofluorane, tumors were implanted into five-to-six week-old female athymic (nu/nu) mice purchased from Harlan (Harlan Laboratories, Washington, D.C.). This research protocol was approved by the Johns Hopkins University Animal Use and Care Committee arid animals were maintained in accordance to guidelines of the American Association of Laboratory Animal Care. Tumors were propagated to subsequent cohorts of mice until a sufficient number were available for drug testing.
Fine needle aspiration (FNA): FNAs on mice were performed according to standard cytopathologic practice using 10 cc syringes and 25-gauge needles. The procedure was performed under inhaled general anesthesia with isofluorane. During each FNA procedure the first pass was smeared onto glass slides and used for morphologic analysis and quality control, (DiffQuik™ and Papanicoloau), and the second through sixth passes were used to acquire viable cells.
Ex vivo assay: FNA passes used to acquire viable cells were immediately transferred into 10 ml sterile prewarmed complete RPMI-1640 culture medium containing 10% FBS, penicillin (200 ug/ml), and streptomycin (200 ug/ml). Equivalent aliquots of cells were seeded in two wells of a 6-well polypropylene microplate. […] Following treatment, non-adherent and adherent cells (collected by scraping) were pooled together in a 1.5 mL microcentrifuge tube and centrifuged at 500 g for 5 mm at 4° C. After washing with PBS, cells were lysed in 100 μL of ice-cold RLT.
RNA extraction and cDNA generation: Total RNA was extracted from cells using the RNeasy™ Mini Kit (Qiagen, Valencia, Calif.) following the manufacturer's instructions. cDNA was synthesized using iScript cDNA synthesis kit (Bio-Rad) following the manufacturer's instructions.
Low-density micro arrays (LDMA): The samples were run in a customized assay with a 384-well format (ABI, Foster City, Calif.), where the expression of 45 to 381 relevant genes can be quantitatively tested. For this example, the array was designed with 8 replicated sections containing 48 wells, with primers of one gene per well: 3 housekeeping genes (HK: UBC, HPRT, SDHA), and 45 genes of interest. 50 μL of cDNA plus 50 μL of ABI mastermix were loaded onto each of two contiguous lanes to have duplicated readouts of every sample, and were run by real-time reverse transcriptase PCR (RT-PCR). The amount of change in the target genes was calculated by comparing the threshold cycle (CT) of each gene to the geometric mean of the CTs of the HK genes. Relative expression of the target genes was estimated using the formula: relative expression=2−^ΔCT, where ΔCT=CT (target gene)−CT (average of the 3 HK genes). The experiment was run in duplicate and mean values are analyzed.
Data analysis: The expression level of each gene in the treated sample was normalized to that of the untreated control. A significant change was defined when the gene expression either increases two-fold or more (>200%), or decreases to half or more (<50%). The rest is considered uninformative.

`Nc1ccn([C@@H]2O[C@H](CO)[C@@H](O)C2(F)F)c(=O)n1` [gemcitabine] was tested, and the AXIN2 gene expression (case #6) was 517, the BAX gene expression (case #6) was 110 and the BNIP3L gene expression (case #6) was 105. It also gave a BRAF gene expression (case #6) of 88, a BRCA1 gene expression (case #6) of 195 and a CCND1 gene expression (case #6) of 85. For the same molecule, the CXCR4 gene expression (case #6) was 0, the CyclinB1 gene expression (case #6) was 84 and the DCK gene expression (case #6) was 91. The EGFR gene expression (case #6) was 74, the ERCC1 gene expression (case #6) was 150 and the FOS gene expression (case #6) was 106. It also gave a GADD45A gene expression (case #6) of 75, a GLI2 gene expression (case #6) of 85 and an HIF1A gene expression (case #6) of 102. It also gave an HIF1B gene expression (case #6) of 65, an IGF1R gene expression (case #6) of 82 and an IGFBP3 gene expression (case #6) of 34. For the same molecule, the IHH gene expression (case #6) was 122, the MAP2K2 gene expression (case #6) was 98 and the MAPK1 gene expression (case #6) was 90. It also gave an MAPK3 gene expression (case #6) of 75, an MDM2 gene expression (case #6) of 81 and an MSLN gene expression (case #6) of 101. It also gave an NFKB1 gene expression (case #6) of 83, an NOTCH1 gene expression (case #6) of 60 and an NOTCH2 gene expression (case #6) of 79. It also gave a PLK1 gene expression (case #6) of 31, a PSCA gene expression (case #6) of 132 and a PTCH gene expression (case #6) of 153. The SHH gene expression (case #6) was 116, the Survivin gene expression (case #6) was 145 and the TGFA gene expression (case #6) was 101. For the same molecule, the VEGF gene expression (case #6) was 91, the VHL gene expression (case #6) was 111 and the p21 gene expression (case #6) was 122. For the same molecule, the AXIN2 gene expression (case #7) was 41, the BAX gene expression (case #7) was 100 and the BNIP3L gene expression (case #7) was 100. It also gave a BRAF gene expression (case #7) of 40, a BRCA1 gene expression (case #7) of 89 and a CCND1 gene expression (case #7) of 127. The CXCR4 gene expression (case #7) was 5, the CyclinB1 gene expression (case #7) was 16 and the DCK gene expression (case #7) was 102. The EGFR gene expression (case #7) was 151, the ERCC1 gene expression (case #7) was 153 and the FOS gene expression (case #7) was 139. For the same molecule, the GADD45A gene expression (case #7) was 96, the GLI2 gene expression (case #7) was 73 and the HIF1A gene expression (case #7) was 115. For the same molecule, the HIF1B gene expression (case #7) was 102, the IGF1R gene expression (case #7) was 28 and the IGFBP3 gene expression (case #7) was 78. For the same molecule, the IHH gene expression (case #7) was 81, the JUN gene expression (case #7) was 80 and the MAP2K2 gene expression (case #7) was 131. For the same molecule, the MAPK1 gene expression (case #7) was 93, the MAPK3 gene expression (case #7) was 167 and the MDM2 gene expression (case #7) was 180. It also gave an MSLN gene expression (case #7) of 117, an NOTCH1 gene expression (case #7) of 104 and an NOTCH2 gene expression (case #7) of 112. For the same molecule, the PLK1 gene expression (case #7) was 98, the PSCA gene expression (case #7) was 91 and the PTCH gene expression (case #7) was 63. It also gave an RRM1 gene expression (case #7) of 129, an SHH gene expression (case #7) of 57 and a Survivin gene expression (case #7) of 85. It also gave a TGFA gene expression (case #7) of 131, a VEGF gene expression (case #7) of 115 and a VHL gene expression (case #7) of 80. For the same molecule, the p21 gene expression (case #7) was 134, the AXIN2 gene expression (case #8) was 81 and the BAX gene expression (case #8) was 91. It also gave a BNIP3L gene expression (case #8) of 106, a BRAF gene expression (case #8) of 122 and a BRCA1 gene expression (case #8) of 59. It also gave a CCND1 gene expression (case #8) of 107, a CXCR4 gene expression (case #8) of 342 and a CyclinB1 gene expression (case #8) of 140. It also gave a DCK gene expression (case #8) of 99, an EGFR gene expression (case #8) of 91 and an ERCC1 gene expression (case #8) of 98. The FOS gene expression (case #8) was 113, the GADD45A gene expression (case #8) was 147 and the GLI2 gene expression (case #8) was 531. The HIF1A gene expression (case #8) was 113, the HIF1B gene expression (case #8) was 566 and the IGF1R gene expression (case #8) was 101. It also gave an IGFBP3 gene expression (case #8) of 83, an IHH gene expression (case #8) of 137 and an MAP2K2 gene expression (case #8) of 86. It also gave an MAPK1 gene expression (case #8) of 78, an MAPK3 gene expression (case #8) of 90 and an MDM2 gene expression (case #8) of 65. For the same molecule, the MSLN gene expression (case #8) was 98, the NOTCH1 gene expression (case #8) was 118 and the NOTCH2 gene expression (case #8) was 122. It also gave a PLK1 gene expression (case #8) of 90, a PSCA gene expression (case #8) of 101 and a PTCH gene expression (case #8) of 203. It also gave an RRM1 gene expression (case #8) of 104, an SHH gene expression (case #8) of 77 and a Survivin gene expression (case #8) of 74. The TGFA gene expression (case #8) was 107, the VEGF gene expression (case #8) was 105 and the VHL gene expression (case #8) was 101. For the same molecule, the p21 gene expression (case #8) was 100, the AXIN2 gene expression (case #9) was 106 and the BAX gene expression (case #9) was 92. It also gave a BNIP3L gene expression (case #9) of 95, a BRAF gene expression (case #9) of 93 and a BRCA1 gene expression (case #9) of 161. The CCND1 gene expression (case #9) was 97, the CXCR4 gene expression (case #9) was 649 and the CyclinB1 gene expression (case #9) was 115. The DCK gene expression (case #9) was 117, the EGFR gene expression (case #9) was 85 and the ERCC1 gene expression (case #9) was 91. It also gave an FOS gene expression (case #9) of 83, a GADD45A gene expression (case #9) of 74 and a GLI2 gene expression (case #9) of 99. For the same molecule, the HIF1A gene expression (case #9) was 100, the HIF1B gene expression (case #9) was 107 and the IGF1R gene expression (case #9) was 53. For the same molecule, the IGFBP3 gene expression (case #9) was 42, the IHH gene expression (case #9) was 99 and the JUN gene expression (case #9) was 92. It also gave an MAP2K2 gene expression (case #9) of 90, an MAPK1 gene expression (case #9) of 99 and an MAPK3 gene expression (case #9) of 106. The MDM2 gene expression (case #9) was 92, the MSLN gene expression (case #9) was 107 and the NOTCH1 gene expression (case #9) was 96. It also gave an NOTCH2 gene expression (case #9) of 101, a PLK1 gene expression (case #9) of 111 and a PSCA gene expression (case #9) of 94. For the same molecule, the PTCH gene expression (case #9) was 78, the RRM1 gene expression (case #9) was 73 and the SHH gene expression (case #9) was 47. It also gave a Survivin gene expression (case #9) of 104, a TGFA gene expression (case #9) of 103 and a VEGF gene expression (case #9) of 87. It also gave a VHL gene expression (case #9) of 110, a p21 gene expression (case #9) of 83 and an AXIN2 gene expression (case #10) of 202. The BAX gene expression (case #10) was 91, the BNIP3L gene expression (case #10) was 97 and the BRAF gene expression (case #10) was 65. It also gave a BRCA1 gene expression (case #10) of 62, a CCND1 gene expression (case #10) of 69 and a CXCR4 gene expression (case #10) of 53. For the same molecule, the CyclinB1 gene expression (case #10) was 89, the DCK gene expression (case #10) was 91 and the EGFR gene expression (case #10) was 50. It also gave an ERCC1 gene expression (case #10) of 91, an FOS gene expression (case #10) of 96 and a GADD45A gene expression (case #10) of 106. The GLI2 gene expression (case #10) was 30, the HIF1A gene expression (case #10) was 90 and the HIF1B gene expression (case #10) was 76. For the same molecule, the IGF1R gene expression (case #10) was 66, the IGFBP3 gene expression (case #10) was 96 and the IHH gene expression (case #10) was 93. The JUN gene expression (case #10) was 82, the MAP2K2 gene expression (case #10) was 89 and the MAPK1 gene expression (case #10) was 79. For the same molecule, the MAPK3 gene expression (case #10) was 73, the MDM2 gene expression (case #10) was 86 and the MSLN gene expression (case #10) was 90. It also gave an NFKB1 gene expression (case #10) of 78, an NOTCH1 gene expression (case #10) of 70 and an NOTCH2 gene expression (case #10) of 101. It also gave a PLK1 gene expression (case #10) of 68, a PSCA gene expression (case #10) of 108 and a PTCH gene expression (case #10) of 33. The RRM1 gene expression (case #10) was 92, the SHH gene expression (case #10) was 70 and the Survivin gene expression (case #10) was 64. It also gave a TGFA gene expression (case #10) of 141, a VEGF gene expression (case #10) of 97 and a VHL gene expression (case #10) of 74. The p21 gene expression (case #10) was 119.
